Assay results: US5962480A, “Drug for ameliorating brain diseases” (Wakunaga Pharmaceutical Co., Ltd., priority 1995, dated 1999)
Like-named read-outs stand apart in the source and are kept apart here.

Columns and labels:
[1] = test system: hippocampus neurons; experiment: inhibition of reduction in survival rate of neurons, hippocampus (number of surviving cells); assay type: cell-based, rat; settings: for viability at 10 µg/mL / viability at 1 µg/mL / viability at 0.1 µg/mL / viability at 0.01 µg/mL / viability at 0.001 µg/mL: Rattus norvegicus, Neuron, 72 h, control 100%; for viability at 10 µg/mL: 10^-5 g/ml; for viability at 1 µg/mL: 10^-6 g/ml; for viability at 0.1 µg/mL: 10^-7 g/ml; for viability at 0.01 µg/mL: 10^-8 g/ml; for viability at 0.001 µg/mL: 10^-9 g/ml; for inhibitory effect against reduction in survival rate of neurons (in words): hippocampus cells, Example 2
Experimental: (§1) From a rat at the 18th day of pregnancy (having an 18 -day old embryo) the uterus was aseptically removed under etherification, and the fetus was obtained. The whole brain was collected from the fetus. From the brain placed in an L-15 medium were removed under a microscope the hippocampus, striate body, septum, cerebral cortex, and cerebellum. They were respectively minced with a knife. The minced tissue was treated by the addition of trypsin (0.25%) and DNase (0.01%) for 30 minutes at 37° C. to thereby isolate cells. The thus-isolated cells were suspended in Eagle's MEM medium supplemented with 10% fetal calf serum, and inoculated at a concentration of 4×10^4 cells/cm^2 into wells of a 48-well plate which had been coated with poly-L-lysin in advance. Following incubation for 24 hours, the medium was replaced by a serum-free DMEM/F-12 medium containing the drug. After three-days' additional incubation (six days for the striate body), the cells were fixed, stained, and the number of surviving cells in each well was counted. Compounds (2) through (14) were tested analogously to Example 1 using hippocampus cells prepared in a manner similar to Example 1. As structural comparative compounds, the following compounds were used: 4H-pyran-4-one (hereinafter referred as Compound (15) and 3-methoxy-6 -hydroxymethyl-4H-pyran-4-one (hereinafter referred to as Compound (16)).

[2] = oral toxicity (LD50), rats; settings: rat, in vivo, read-out: 50% lethal death (LD50)
[3] = test system: striate body neurons; experiment: inhibition of reduction in survival rate of neurons, striate body (number of surviving cells); assay type: cell-based; settings: Rattus norvegicus, Neuron, 144 h, 6 days, control 100%
Experimental: as §1, with “counted.” for “counted. Compounds (2) through (14) were tested analogously to Example 1 using hippocampus cells prepared in a manner similar to Example 1. As structural comparative compounds, the following compounds were used: 4H-pyran-4-one (hereinafter referred as Compound (15) and 3-methoxy-6 -hydroxymethyl-4H-pyran-4-one (hereinafter referred to as Compound (16)).”

[4] = oral toxicity (LD50), mice; settings: mouse, in vivo, read-out: 50% lethal death (LD50)
[5] = test system: hippocampus cells (neurites); experiment: branching promotion effect on neurites; assay type: cell-based, rat; settings: one and two days after addition of the drug
Experimental: The hippocampus cells obtained in a manner similar to that in Example 1 were incubated for 24 hours in a medium containing fetal calf serum, then for a further 24 hours in a serum-free medium. Subsequently, the drug was added. When one day and two days elapsed after addition of the drug, photographs were taken of the same cells. The number of branches from the longest neurite was counted.

[6] = test system: cerebellum neurons; experiment: inhibition of reduction in survival rate of neurons, cerebellum (number of surviving cells); assay type: cell-based; settings: Rattus norvegicus, Neuron, 72 h, 3 days, control 100%
Experimental: as §1, with “counted.” for “counted. Compounds (2) through (14) were tested analogously to Example 1 using hippocampus cells prepared in a manner similar to Example 1. As structural comparative compounds, the following compounds were used: 4H-pyran-4-one (hereinafter referred as Compound (15) and 3-methoxy-6 -hydroxymethyl-4H-pyran-4-one (hereinafter referred to as Compound (16)).”

[7] = test system: brain neurons; experiment: inhibition of reduction of brain neurons (overall statement); assay type: cell-based, rat; settings: concentration-dependent; activity of control: 100%
Experimental: as §1, with “counted.” for “counted. Compounds (2) through (14) were tested analogously to Example 1 using hippocampus cells prepared in a manner similar to Example 1. As structural comparative compounds, the following compounds were used: 4H-pyran-4-one (hereinafter referred as Compound (15) and 3-methoxy-6 -hydroxymethyl-4H-pyran-4-one (hereinafter referred to as Compound (16)).”

[8] = test system: cerebral cortex neurons; experiment: inhibition of reduction in survival rate of neurons, cerebral cortex (number of surviving cells); assay type: cell-based; settings: Rattus norvegicus, Cerebral cortex neuron, 72 h, 3 days, control 100%
Experimental: as §1, with “counted.” for “counted. Compounds (2) through (14) were tested analogously to Example 1 using hippocampus cells prepared in a manner similar to Example 1. As structural comparative compounds, the following compounds were used: 4H-pyran-4-one (hereinafter referred as Compound (15) and 3-methoxy-6 -hydroxymethyl-4H-pyran-4-one (hereinafter referred to as Compound (16)).”

[9] = test system: septum neurons; experiment: inhibition of reduction in survival rate of neurons, septum (number of surviving cells); assay type: cell-based; settings: Rattus norvegicus, Neuron, 72 h, 3 days, control 100%
Experimental: as §1, with “counted.” for “counted. Compounds (2) through (14) were tested analogously to Example 1 using hippocampus cells prepared in a manner similar to Example 1. As structural comparative compounds, the following compounds were used: 4H-pyran-4-one (hereinafter referred as Compound (15) and 3-methoxy-6 -hydroxymethyl-4H-pyran-4-one (hereinafter referred to as Compound (16)).”

[10] = read-out: Inhibitory effect against reduction in survival rate of neurons (survival rate class)
[11] = 3 days, read-out: Number of surviving cells, Hippocampus

CC1=CC(=O)C(O)C=N1 (stereo not shown) [Compound (13), 3-Hydroxy-6-methyl-4-pyridone]
viability at 10 µg/mL [1, 10]: 130 to 150% | viability at 1 µg/mL [1, 10]: 110 to 130% | viability at 0.1 µg/mL [1, 10]: 90 to 110% | viability at 0.01 µg/mL [1, 10]: 90 to 110% | viability at 0.001 µg/mL [1, 10]: 90 to 110%

CCCCCc1oc(CO)cc(=O)c1O [Compound (9), 3-Hydroxy-6-hydroxymethyl-2-pentyl-4H-pyran-4-one]
viability at 10 µg/mL [1, 10]: 110 to 130% | viability at 1 µg/mL [1, 10]: 90 to 110% | viability at 0.1 µg/mL [1, 10]: 90 to 110% | viability at 0.01 µg/mL [1, 10]: 90 to 110% | viability at 0.001 µg/mL [1, 10]: 90 to 110%

CCCCCc1oc(C)c(O)c(=O)c1O [Compound (11), 3,5-Dihydroxy-6-methyl-2-pentyl-4H-pyran-4-one]
viability at 1 µg/mL [1, 10]: ≤ 90% | viability at 0.1 µg/mL [1, 10]: 130 to 150% | viability at 0.01 µg/mL [1, 10]: 90 to 110% | viability at 0.001 µg/mL [1, 10]: 90 to 110%

CCCCC(O)c1oc(CO)cc(=O)c1O (stereo not shown) [Compound (10), 3-Hydroxy-6-hydroxymethyl-2-(1'-hydroxypentyl)-4H-pyran-4-one]
viability at 10 µg/mL [1, 10]: 130 to 150% | viability at 1 µg/mL [1, 10]: 110 to 130% | viability at 0.1 µg/mL [1, 10]: 90 to 110% | viability at 0.01 µg/mL [1, 10]: 90 to 110% | viability at 0.001 µg/mL [1, 10]: 90 to 110%

O=c1ccocc1 [Compound (15), 4H-pyran-4-one, reference compound]
viability at 10 µg/mL [1, 10]: 90 to 110% | viability at 1 µg/mL [1, 10]: 90 to 110% | viability at 0.1 µg/mL [1, 10]: 90 to 110% | viability at 0.01 µg/mL [1, 10]: 90 to 110% | viability at 0.001 µg/mL [1, 10]: 90 to 110% | inhibitory effect against reduction in survival rate of neurons (in words) [1]: no inhibitory effect

COc1coc(CO)cc1=O [Compound (16), 3-methoxy-6-hydroxymethyl-4H-pyran-4-one, reference compound]
viability at 10 µg/mL [1, 10]: 90 to 110% | viability at 1 µg/mL [1, 10]: 90 to 110% | viability at 0.1 µg/mL [1, 10]: 90 to 110% | viability at 0.01 µg/mL [1, 10]: 90 to 110% | viability at 0.001 µg/mL [1, 10]: 90 to 110% | inhibitory effect against reduction in survival rate of neurons (in words) [1]: no inhibitory effect

CCCCCc1oc(C)c(OC)c(=O)c1O [Compound (1), 3-Hydroxy-6-methyl-5-methoxy-2-pentyl-4H-pyran-4-one]
LD50 [2]: ≥ 1000 mg/kg | viability at 1 µg/mL ([3]; 10^-6 g/ml): 83.8% | viability at 0.1 µg/mL ([3]; 10^-7 g/ml): 160% | viability at 0.01 µg/mL ([3]; 10^-8 g/ml): 139% | viability at 0.001 µg/mL ([3]; 10^-9 g/ml): 126% | viability at 1 µg/mL [1, 11]: 57.8% | viability at 0.1 µg/mL [1, 11]: 146% | viability at 0.01 µg/mL [1, 11]: 134% | viability at 0.001 µg/mL [1, 11]: 109% | LD50 [4]: ≥ 1000 mg/kg | branching promotion effect on neurites (in words) [5]: confirmed to have a branching promotion effect on neurites | viability at 1 µg/mL ([6]; 10^-6 g/ml): 65.3% | viability at 0.1 µg/mL ([6]; 10^-7 g/ml): 147% | viability at 0.01 µg/mL ([6]; 10^-8 g/ml): 136% | viability at 0.001 µg/mL ([6]; 10^-9 g/ml): 137% | concentration range of effect of inhibiting reduction of neurons [7]: 1 to 100 ng/mL | viability at 1 µg/mL ([8]; 10^-6 g/ml): 90.2% | viability at 0.1 µg/mL ([8]; 10^-7 g/ml): 125% | viability at 0.01 µg/mL ([8]; 10^-8 g/ml): 107% | viability at 0.001 µg/mL ([8]; 10^-9 g/ml): 104% | viability at 1 µg/mL ([9]; 10^-6 g/ml): 71.6% | viability at 0.1 µg/mL ([9]; 10^-7 g/ml): 157% | viability at 0.01 µg/mL ([9]; 10^-8 g/ml): 150% | viability at 0.001 µg/mL ([9]; 10^-9 g/ml): 128%

Cc1cc(=O)c(O)c(C)o1 [Compound (3), 3-Hydroxy-2,6-dimethyl-4H-pyran-4-one]
viability at 10 µg/mL [1, 10]: 110 to 130% | viability at 1 µg/mL [1, 10]: 130 to 150% | viability at 0.1 µg/mL [1, 10]: 130 to 150% | viability at 0.01 µg/mL [1, 10]: 110 to 130% | viability at 0.001 µg/mL [1, 10]: 90 to 110% | branching promotion effect on neurites (in words) [5]: confirmed to have a branching promotion effect on neurites
